This passage reports IC50 results from patent publication US20240190855A1 (Relay Therapeutics, Inc., priority 2021, published 2024).

This test deals with T1, CDK2/Cyclin E complex (Homo sapiens, UniProt P24941).
T1 construct: purchased Eurofins 14-475
As to the kind of experiment: CDK2/Cyclin E fluorescence-based microfluidic mobility shift assay (CDK2 Biochemical Caliper Assay). The conditions noted are these: read-out: Biochemical CDK2/CyclinE Caliper IC50. The gist of the method: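 Wild-type CDK2/Cyclin E was preincubated with compound and ATP for 30 min at RT before the 5-FAM-QSPKKG peptide was added. Final concentrations were 0.1 nM enzyme, 2000 uM ATP, 1.5 uM peptide and 1% DMSO. After 20 hr at RT and EDTA stop, substrate conversion was read by microfluidic mobility shift over an 11-point, 3-fold dilution series.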
As for `CC(C)NC(=O)O[C@@H]1CO[C@H](c2cc(Nc3nccc4ncsc34)n[nH]2)C1` [Example 434], the IC50 lay within 100 to 250 nM.
The value for `CC(C)c1ccnnc1O[C@H]1C[C@@H](c2cc(Nc3nccc4ncsc34)n[nH]2)C1` [Example 435] was ≤ 100 nM.
Consider `CC(C)c1ccnnc1O[C@@H]1CC[C@H](c2cc(Nc3nccc4ncsc34)n[nH]2)C1` [Example 436], for which the IC50 was ≤ 100 nM.
Turning to `CC(C)c1ccnnc1O[C@H]1CC[C@@H](c2cc(Nc3nccc4ncsc34)n[nH]2)C1` [Example 437], the IC50 is ≤ 100 nM.
With `CC(C)c1ccnnc1OC[C@H]1C[C@@H](c2cc(Nc3nccc4ncsc34)n[nH]2)C1` [Example 438] the figure was ≤ 100 nM.
The value for `CC(C)c1ccnnc1OC[C@H]1C[C@H](c2cc(Nc3nccc4ncsc34)n[nH]2)C1` [Example 439] was 1000 to 100000 nM.
With `COCc1cc(C(=O)Nc2cc([C@H]3C[C@@H](COc4nscc4C4CC4)C3)[nH]n2)n(C)n1` [Example 454] the figure was ≤ 100 nM; with `COCc1cc(C(=O)Nc2cc([C@H]3C[C@H](COc4nscc4C4CC4)C3)[nH]n2)n(C)n1` [Example 455], 1000 to 100000 nM; with `CC(C)NC(=O)OC[C@H]1C[C@@H](c2cc(Nc3nccc4ncsc34)n[nH]2)C1` [Example 456], ≤ 100 nM.
In the case of `CC(C)NC(=O)OC[C@H]1C[C@H](c2cc(Nc3nccc4ncsc34)n[nH]2)C1` [Example 457], the IC50 was in the range of 250 to 1000 nM.
For the molecule `COCc1cc(C(=O)Nc2cc([C@H]3C[C@@H](Oc4nnccc4C(C)C)CO3)[nH]n2)n(C)n1` [Example 458], the IC50 is ≤ 100 nM.
The value for `COCc1cc(C(=O)Nc2cc([C@@H]3C[C@H](Oc4nnccc4C(C)C)CO3)[nH]n2)n(C)n1` [Example 459] was ≤ 100 nM.
With `COCc1cc(C(=O)Nc2cc([C@H]3C[C@@H](COC(=O)NC(C)C)C3)[nH]n2)n(C)n1` [Example 460] the figure was ≤ 100 nM.
The value for `COCc1cc(C(=O)Nc2cc([C@H]3C[C@H](COC(=O)NC(C)C)C3)[nH]n2)n(C)n1` [Example 461] was 1000 to 100000 nM; that for `CC(C)c1ccnnc1O[C@H]1CO[C@@H](c2cc(Nc3nccn4nccc34)n[nH]2)C1` [Example 464] was ≤ 100 nM; that for `CC(C)c1ccnnc1O[C@@H]1CO[C@H](c2cc(Nc3nccn4nccc34)n[nH]2)C1` [Example 465] was ≤ 100 nM.
Turning to `CC(C)c1ccnnc1OC[C@H]1C[C@@H](c2cc(Nc3nccn4nccc34)n[nH]2)C1` [Example 488], the IC50 was ≤ 100 nM.
Regarding `CC(C)c1ccnnc1OC[C@H]1C[C@H](c2cc(Nc3nccn4nccc34)n[nH]2)C1` [Example 489], the IC50 is 250 to 1000 nM.
Turning to `COCc1cc2c(Nc3cc([C@H]4C[C@@H](Oc5nnccc5C(C)C)CO4)[nH]n3)nccn2n1` [Example 496], the IC50 is ≤ 100 nM.
As for `COCc1cc2c(Nc3cc([C@@H]4C[C@H](Oc5nnccc5C(C)C)CO4)[nH]n3)nccn2n1` [Example 497], the IC50 was ≤ 100 nM.
For the molecule `Cc1ncccc1OC[C@H]1C[C@@H](c2cc(Nc3nccn4nccc34)n[nH]2)C1` [Example 513], the IC50 lay in the range of 100 to 250 nM.
For the molecule `Cc1ncccc1OC[C@H]1C[C@H](c2cc(Nc3nccn4nccc34)n[nH]2)C1` [Example 514], the IC50 was in the range of 1000 to 100000 nM.
With `COCc1cc(C(=O)Nc2cc([C@H]3C[C@]4(CN(CC(C)C)C(=O)N4)C3)[nH]n2)n(C)n1` [Example 515] the figure was 1000 to 100000 nM; with `COCc1cc(C(=O)Nc2cc([C@H]3C[C@@]4(CN(CC(C)C)C(=O)N4)C3)[nH]n2)n(C)n1` [Example 516], 250 to 1000 nM; with `COCc1cc2c(Nc3cc([C@H]4C[C@@H](COc5nnccc5C(C)C)C4)[nH]n3)nccn2n1` [Example 519], ≤ 100 nM.
The value for `COCc1cc2c(Nc3cc([C@H]4C[C@H](COc5nnccc5C(C)C)C4)[nH]n3)nccn2n1` [Example 520] was 1000 to 100000 nM.
With `Cc1ncccc1O[C@@H]1CO[C@H](c2cc(Nc3nccn4nccc34)n[nH]2)C1` [Example 521] the figure was 1000 to 100000 nM; with `Cc1ncccc1O[C@H]1CO[C@@H](c2cc(Nc3nccn4nccc34)n[nH]2)C1` [Example 522], 250 to 1000 nM; with `CC(C)c1ccnnc1O[C@H]1CO[C@@H](c2cc(Nc3nccc4ncsc34)n[nH]2)C1` [Example 523], ≤ 100 nM.
Regarding `CC(C)c1ccnnc1O[C@@H]1CO[C@H](c2cc(Nc3nccc4ncsc34)n[nH]2)C1` [Example 524], the IC50 is ≤ 100 nM.
In the case of `COCc1cc(C(=O)Nc2cc([C@H]3C[C@@](C)(CC(=O)NC(C)C)C3)[nH]n2)n(C)n1` [Example 532], the IC50 lay in the range of 1000 to 100000 nM.
On to `COCc1cc(C(=O)Nc2cc([C@H]3C[C@](C)(CC(=O)NC(C)C)C3)[nH]n2)n(C)n1` [Example 533], for which the IC50 was 1000 to 100000 nM.
Take `c1cncc(OC[C@H]2C[C@@H](c3cc(Nc4nccn5nccc45)n[nH]3)C2)c1` [Example 536]: the IC50 is ≤ 100 nM.
The value for `c1cncc(OC[C@H]2C[C@H](c3cc(Nc4nccn5nccc45)n[nH]3)C2)c1` [Example 537] was 1000 to 100000 nM.
The value for `COCc1cc(C(=O)Nc2cc([C@H]3C[C@@H]4[C@H](C3)[C@H]4C(=O)N(C)C)[nH]n2)n(C)n1` [Example 540] was 1000 to 100000 nM; that for `COCc1cc(C(=O)Nc2cc([C@H]3C[C@]4(C3)NC(=O)N(CC(C)C)C4=O)n[nH]2)n(C)n1` [Example 541] was 1000 to 100000 nM.
The value for `COCc1cc2c(Nc3cc([C@H]4C[C@@H](OC(=O)NC(C)C)CO4)[nH]n3)nccn2n1` [Example 544] was ≤ 100 nM.
As for `COCc1cc2c(Nc3cc([C@@H]4C[C@H](OC(=O)NC(C)C)CO4)[nH]n3)nccn2n1` [Example 545], the IC50 was ≤ 100 nM.
With `COCc1cc(C(=O)Nc2cc(N3CC(COC(=O)NC(C)C)C3)[nH]n2)n(C)n1` [Example 558] the figure was 1000 to 100000 nM; with `COCc1cc2c(Nc3cc([C@H]4C[C@H](COC(=O)NC(C)C)C4)[nH]n3)nccn2n1` [Example 560], 100 to 250 nM; with `COCc1cc(C(=O)Nc2cc([C@H]3C[C@@H](COc4cccnc4)C3)[nH]n2)n(C)n1` [Example 561], 1000 to 100000 nM.
For `COCc1cc(C(=O)Nc2cc([C@H]3C[C@H](COc4cccnc4)C3)[nH]n2)n(C)n1` [Example 562], the IC50 fell in the range of 1000 to 100000 nM.
With `CC(C)c1[nH]ncc1OC[C@H]1C[C@@H](c2cc(Nc3nccn4nccc34)n[nH]2)C1` [Example 582] the figure was ≤ 100 nM; with `CC(C)c1[nH]ncc1OC[C@H]1C[C@H](c2cc(Nc3nccn4nccc34)n[nH]2)C1` [Example 583], 1000 to 100000 nM; with `COCc1cc2c(Nc3cc([C@H]4C[C@@H](COc5cccnc5)C4)[nH]n3)nccn2n1` [Example 586], 250 to 1000 nM.
With `COCc1cc(C(=O)Nc2cc([C@H]3C[C@@H](COc4cn[nH]c4C(C)C)C3)[nH]n2)n(C)n1` [Example 587] the figure was 100 to 250 nM; with `COCc1cc2c(Nc3cc([C@H]4C[C@@H](COc5cn[nH]c5C(C)C)C4)[nH]n3)nccn2n1` [Example 588], ≤ 100 nM; with `CC(C)NC(=O)OC[C@H]1C[C@@H](c2cc(Nc3ccc4c(n3)C(C)(C)NC4=O)n[nH]2)C1` [Example 589], ≤ 100 nM.
The value for `COCc1cc2c(Nc3cc([C@H]4C[C@@H](OC(=O)NC5(C)CC5)CO4)[nH]n3)nccn2n1` [Example 619] was ≤ 100 nM; that for `COCc1cc2c(Nc3cc([C@@H]4C[C@H](OC(=O)NC5(C)CC5)CO4)[nH]n3)nccn2n1` [Example 620] was ≤ 100 nM; that for `COCc1cc2c(Nc3cc([C@H]4C[C@@H](COC(=O)N5[C@@H](C)CC[C@@H]5C)C4)[nH]n3)nccn2n1` [Example 621] was ≤ 100 nM.
Take `COCc1cc(C(=O)Nc2cc([C@H]3C[C@@H](COc4cn[nH]c4C(C)(C)C)C3)[nH]n2)n(C)n1` [Example 622]: the IC50 is ≤ 100 nM.
The value for `COCc1cc(C(=O)Nc2cc([C@H]3C[C@@H](COc4cn(C)nc4C(C)C)C3)[nH]n2)n(C)n1` [Example 623] was 100 to 250 nM; that for `CCOCc1cc(C(=O)Nc2cc([C@H]3C[C@@H](COC(=O)NC(C)C)C3)[nH]n2)n(C)n1` [Example 624] was ≤ 100 nM.
The value for `CCOCc1cc(C(=O)Nc2cc([C@H]3C[C@H](COC(=O)NC(C)C)C3)[nH]n2)n(C)n1` [Example 625] was 1000 to 100000 nM; that for `COCc1cc(C(=O)Nc2cc([C@H]3CC[C@@H](OC(=O)NC(C)C)CC3)[nH]n2)n(C)n1` [Example 626] was 250 to 1000 nM.
With `COCc1cc(C(=O)Nc2cc([C@H]3CC[C@@H](Oc4nnccc4C(C)C)CC3)[nH]n2)n(C)n1` [Example 627] the figure was ≤ 100 nM; with `COCc1cc(C(=O)Nc2cc([C@@H]3CC[C@H](Oc4cn[nH]c4C(C)C)C3)[nH]n2)n(C)n1` [Example 628], 250 to 1000 nM; with `COCc1cc(C(=O)Nc2cc([C@H]3CC[C@@H](Oc4cn[nH]c4C(C)C)C3)[nH]n2)n(C)n1` [Example 629], 100 to 250 nM.
As for `COCc1cc2c(Nc3cc([C@H]4C[C@@H](COc5cn[nH]c5C(C)(C)C)C4)[nH]n3)nccn2n1` [Example 630], the IC50 was ≤ 100 nM.
The value for `COCc1cc(C(=O)Nc2cc([C@H]3C[C@@H](COc4cnn(C)c4C(C)C)C3)[nH]n2)n(C)n1` [Example 631] was 100 to 250 nM; that for `COCc1cc(C(=O)Nc2cc([C@H]3C[C@@H](COc4nncn4C(C)(C)C)C3)[nH]n2)n(C)n1` [Example 632] was ≤ 100 nM; that for `COCc1cc(C(=O)Nc2cc([C@H]3C[C@@H](COc4nncn4C(C)C)C3)[nH]n2)n(C)n1` [Example 633] was ≤ 100 nM.
The value for `CC(C)NC(=O)O[C@@H]1CO[C@H](c2cc(NC(=O)c3cc(CN4CCCC4)nn3C)n[nH]2)C1` [Example 634] was 100 to 250 nM; that for `CC(C)n1cnnc1OC[C@H]1C[C@@H](c2cc(Nc3nccn4nccc34)n[nH]2)C1` [Example 635] was ≤ 100 nM.
